Results published in patent publication US8748417B2, “Amino-pyrrolidine-azetidine diamides as monoacylglycerol lipase inhibitors” (Janssen Pharmaceutica, NV, priority 2010, dated 2014).
Residue numbers refer to the chain shown, from its start.

Key:
Format in all cases: biochemical
[1] = target: T1, purified mutant MGL (mut-MGLL 11-313 L179S L186S) (Homo sapiens, UniProt Q99685, L169S/L176S); experiment: MGL enzyme activity assay (4MU-B cleavage), mutant MGL; details: mutant MGL 5 nM, 4MU-B 10 μM, 37° C.; read-out: MGL mutant inh IC50
T1 construct: purified mutant MGL (mut-MGLL 11-313 L179S L186S)
T1 sequence (Q99685 1-303 L169S/L176S): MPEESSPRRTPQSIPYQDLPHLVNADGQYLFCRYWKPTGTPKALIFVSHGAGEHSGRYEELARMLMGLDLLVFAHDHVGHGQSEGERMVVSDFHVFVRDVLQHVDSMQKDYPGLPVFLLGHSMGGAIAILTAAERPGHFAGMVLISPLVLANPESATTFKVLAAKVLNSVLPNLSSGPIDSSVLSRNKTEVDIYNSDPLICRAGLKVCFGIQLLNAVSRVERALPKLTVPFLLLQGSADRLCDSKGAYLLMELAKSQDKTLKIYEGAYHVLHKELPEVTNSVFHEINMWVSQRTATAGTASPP
Method: All rate-based assays were performed in black 384-well polypropylene PCR microplates (Abgene) in a total volume of 30 μL. Substrate 4-methylumbelliferyl butyrate (4MU-B; Sigma) and either purified mutant MGL (mut-MGLL 11-313 L179S L186S) or purified wild type MGL (wt-MGLL 6H-11-313) were diluted separately into 20 mM PIPES buffer (pH=7.0), containing 150 mM NaCl and 0.001% Tween 20. Compounds of Formula (I) were pre-dispensed (50 nL) into the assay plate using a Cartesian Hummingbird prior to adding 4MU-B (25 μL of 1.2× solution to a final concentration of 10 μM) followed by enzyme (5 μL of a 6× solution to a final concentration of 5 nM) to initiate the reaction. Final compound concentrations ranged from 17 to 0.0003 μM. The fluorescence change due to 4MU-B cleavage was monitored with excitation and emission wavelengths of 335 and 440 nm, respectively, and a bandwidth of 10 nm (Safire^2, Tecan) at 37° C. for 5 min.
The IC50 values for the following compounds were determined using Microsoft Office Excel from a fit of the equation to the concentration-response plot of the fractional activity as a function of inhibitor concentration.

[2] = tested on: MGL (rat brain homogenate); experiment: 2-AG accumulation assay in rat brain homogenate; details: percent of vehicle 2-AG accumulation; for Rat Brain 2AG % VehCntrl (%) @10 μM: compound 10 μM; for Rat Brain 2AG % VehCntrl (%) @1 μM: compound 1 μM
In short: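 Rat brain homogenate was incubated with compound for 15 min at 37° C., after which CaCl2 was added to a final concentration of 10 mM and incubation continued for 15 min at 37° C. in 5 mL total. Reactions were stopped with 6 mL of 2:1 chloroform/methanol, and 2-AG accumulated in the organic phase was quantified by HPLC/MS.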

[3] = target: T2, purified wild type MGL (wt-MGLL 6H-11-313) (Homo sapiens, UniProt Q99685); experiment: MGL enzyme activity assay (4MU-B cleavage), wild type MGL; details: wild type MGL 5 nM, 4MU-B 10 μM, 37° C.; read-out: MGL wild type inh IC50
T2 construct: purified wild type MGL (wt-MGLL 6H-11-313)
T2 sequence (Q99685 1-303): T1 sequence (Q99685 1-303 L169S/L176S) with S169L, S176L
In short: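 Enzyme in 20 mM PIPES pH 7.0, 150 mM NaCl, 0.001% Tween 20 with 4MU-B at 10 μM final and MGL at 5 nM final; compounds 17 to 0.0003 μM final, enzyme added last. Fluorescence (ex 335/em 440 nm) followed at 37° C for 5 min; IC50 from fit of fractional activity versus inhibitor concentration.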

Row | IC50 [1] [nM] | IC50 [3] [nM] | Compound | Rat Brain 2AG % VehCntrl (%) @10 μM [2] [%] | Rat Brain 2AG % VehCntrl (%) @1 μM [2] [%]
1 | < 5 |  | O=C(c1ccc(Cc2ccccc2)cc1)N1CC(N[C@H]2CCN(C(=O)c3ccsc3)C2)C1 [Cpd 5, (3S)-N-{1-[(4-Benzylphenyl)carbonyl]azetidin-3-yl}-1-(thiophen-3-ylcarbonyl)pyrrolidin-3-amine] | 962 | 
2 | 80.4 |  | O=C(c1ccccc1)N1CC[C@H](NC2CN(C(=O)c3cc4ccc(C(F)(F)F)cc4s3)C2)C1 [Cpd 20, (3S)-1-(Phenylcarbonyl)-N-(1-{[6-(trifluoromethyl)-1-benzothiophen-2-yl]carbonyl}azetidin-3-yl)pyrrolidin-3-amine] |  | 304
3 | 13.2 |  | O=C(c1ccc2c(Br)cccc2c1)N1CC(N(O)[C@H]2CCN(C(=O)c3ccccc3)C2)C1 [Cpd 34, (3S)-N-{1-[(5-Bromonaphthalen-2-yl)carbonyl]azetidin-3-yl}-N-hydroxy-1-(phenylcarbonyl)pyrrolidin-3-amine] |  | 645
4 | 8.5 |  | O=C(c1ccc2c(-c3ccccc3C(F)(F)F)cccc2c1)N1CC(N[C@H]2CCN(C(=O)c3ccccc3)C2)C1 [Cpd 24, (3S)-1-(Phenylcarbonyl)-N-[1-({5-[2-(trifluoromethyl)phenyl]naphthalen-2-yl}carbonyl)azetidin-3-yl]pyrrolidin-3-amine] |  | 706
5 | 15.8 |  | O=C(c1ccc(C(F)(F)c2ccccc2)cc1)N1CC(N[C@H]2CCN(C(=O)c3ccccc3)C2)C1 [Cpd 73, (3S)-N-[1-({4-[Difluoro(phenyl)methyl]phenyl}carbonyl)azetidin-3-yl]-1-(phenylcarbonyl)pyrrolidin-3-amine] |  | 441
6 | 12 |  | O=C(c1ccc(Cc2ccccc2)cc1)N1CC(N[C@H]2CCN(C(=O)c3ccccc3)C2)C1 [Cpd 4, (3S)-N-{1-[(4-Benzylphenyl)carbonyl]azetidin-3-yl}-1-(phenylcarbonyl)pyrrolidin-3-amine] | 1033 | 
7 | 357 | 480 | O=C(c1ccccc1)N1CC[C@H](NC2CN(C(=O)c3cc4cc(Br)ccc4s3)C2)C1 [Cpd 49, (3S)-N-{1-[(5-Bromo-1-benzothiophen-2-yl)carbonyl]azetidin-3-yl}-1-(phenylcarbonyl)pyrrolidin-3-amine] |  | 
8 | 226 | 6.6 | O=C(c1ccccc1)N1CC[C@H](NC2CN(C(=O)c3cc4cc(-c5ccc(C(F)(F)F)cc5)ccc4s3)C2)C1 [Cpd 52, (3S)-1-(Phenylcarbonyl)-N-[1-({5-[4-(trifluoromethyl)phenyl]-1-benzothiophen-2-yl}carbonyl)azetidin-3-yl]pyrrolidin-3-amine] |  | 
9 | 757 |  | O=C(c1ccc(-c2cccc(C(F)(F)F)c2)cc1)N1CC(N[C@@H]2CN(C(=O)c3ccccc3)C[C@H]2O)C1 (relative stereo) [Cpd 72, trans-1-(Phenylcarbonyl)-4-[(1-{[3′-(trifluoromethyl)biphenyl-4-yl]carbonyl}azetidin-3-yl)amino]pyrrolidin-3-ol] |  | 
10 | 2910 |  | O=C(c1nccs1)N1CC[C@H](NC2CN(C(=O)N3CCc4cc(Br)ccc4C3)C2)C1 [Cpd 10, (S)-(3-((1-(6-Bromo-1,2,3,4-tetrahydroisoquinoline-2-carbonyl)azetidin-3-yl)amino)pyrrolidin-1-yl)(thiazol-2-yl)methanone] |  | 
11 | 490 |  | O=C(c1ccc(Cc2ccccc2)cc1)N1CC(N[C@@H]2CCN(C(=O)c3nccs3)C2)C1 [Cpd 6, (3R)-N-{1-[(4-Benzylphenyl)carbonyl]azetidin-3-yl}-1-(1,3-thiazol-2-ylcarbonyl)pyrrolidin-3-amine] |  | 
12 | 10900 |  | O=C(c1ccc(-c2ccccc2)cc1)N1CC(N[C@H]2CCN(C(=O)c3cc4ccccc4o3)C2)C1 [Cpd 47, (3S)-1-(1-Benzofuran-2-ylcarbonyl)-N-[1-(biphenyl-4-ylcarbonyl)azetidin-3-yl]pyrrolidin-3-amine] |  | 
13 | 301 |  | O=C(c1ccccc1)N1CC[C@H](NC2CN(C(=O)c3cc4ccc(Br)cc4s3)C2)C1 [Cpd 38, (3S)-N-{1-[(6-Bromo-1-benzothiophen-2-yl)carbonyl]azetidin-3-yl}-1-(phenylcarbonyl)pyrrolidin-3-amine] |  | 
14 | 344 |  | O=C(c1nccs1)N1CC[C@H](NC2CN(C(=O)N3CCc4cc(-c5ccccc5)ccc4C3)C2)C1 [Cpd 11, (S)-(3-((1-(6-Phenyl-1,2,3,4-tetrahydroisoquinoline-2-carbonyl)azetidin-3-yl)amino)pyrrolidin-1-yl)(thiazol-2-yl)methanone] |  | 
15 | 720 |  | O=C(c1nccs1)N1CC[C@H](NC2CN(C(=O)N3Cc4ccc(-c5ccccc5)cc4C3)C2)C1 [Cpd 13, (3S)-N-{1-[(5-Phenyl-1,3-dihydro-2H-isoindol-2-yl)carbonyl]azetidin-3-yl}-1-(1,3-thiazol-2-ylcarbonyl)pyrrolidin-3-amine] |  | 
16 | 158 |  | O=C(c1ccc(-c2ccc(C(F)(F)F)cc2)cc1)N1CC(N[C@H]2CCN(C(=O)c3ccccc3)C2)C1 [Cpd 35, (3S)-1-(Phenylcarbonyl)-N-(1-{[4′-(trifluoromethyl)biphenyl-4-yl]carbonyl}azetidin-3-yl)pyrrolidin-3-amine] |  | 
17 | 5580 |  | COC1CN(C(=O)c2ccccc2)CC1NC1CN(C(=O)c2ccc(-c3cccc(C(F)(F)F)c3)cc2)C1 (stereo not drawn) [Cpd 71, trans--4-Methoxy-1-(phenylcarbonyl)-N-(1-{[3′-(trifluoromethyl)biphenyl-4-yl]carbonyl}azetidin-3-yl)pyrrolidin-3-amine] |  | 
18 | 214 |  | O=C(c1ccccc1)N1CC[C@H](NC2CN(C(=O)c3sc4ccccc4c3C3CC3)C2)C1 [Cpd 66, (3S)-N-{1-[(3-Cyclopropyl-1-benzothiophen-2-yl)carbonyl]azetidin-3-yl}-1-(phenylcarbonyl)pyrrolidin-3-amine] |  | 
19 | 116 |  | O=C(c1ccc(-c2ccccc2)cc1)N1CC(N[C@H]2CCN(C(=O)c3nccs3)C2)C1 [Cpd 1, (3S)-N-[1-(Biphenyl-4-ylcarbonyl)azetidin-3-yl]-1-(1,3-thiazol-2-ylcarbonyl)pyrrolidin-3-amine] |  | 
20 | 2060 |  | O=C(c1ccc(Cc2ccccc2)cc1)N1CC(N[C@@H]2CCN(C(=O)c3ccccc3)C2)C1 [Cpd 7, (3R)-N-{1-[(4-Benzylphenyl)carbonyl]azetidin-3-yl}-1-(phenylcarbonyl)pyrrolidin-3-amine] |  | 
21 | 6210 |  | O=C(c1nccs1)N1CC[C@H](NC2CN(C(=O)N3Cc4ccc(Br)cc4C3)C2)C1 [Cpd 12, (3S)-N-{1-[(5-Bromo-1,3-dihydro-2H-isoindol-2-yl)carbonyl]azetidin-3-yl}-1-(1,3-thiazol-2-ylcarbonyl)pyrrolidin-3-amine] |  | 
22 | 361 |  | O=C(c1ccccc1)N1CC[C@H](NC2CN(C(=O)c3cc4cc(C(F)(F)F)ccc4s3)C2)C1 [Cpd 19, (3S)-1-(Phenylcarbonyl)-N-(1-{[5-(trifluoromethyl)-1-benzothiophen-2-yl]carbonyl}azetidin-3-yl)pyrrolidin-3-amine] |  | 
23 | 33 | 464 | O=C(c1ccc(-c2ccccc2)cc1)N1CC(NC2CN(C(=O)c3ccccc3)CC2F)C1 (stereo not shown) [Cpd 58, N-[1-(Biphenyl-4-ylcarbonyl)azetidin-3-yl]-4-fluoro-1-(phenylcarbonyl)pyrrolidin-3-amine] |  | 
24 | 229 | < 5 | O=C(c1ccccc1)N1CC[C@H](NC2CN(C(=O)c3cc4cc(-c5cccc(C(F)(F)F)c5)ccc4s3)C2)C1 [Cpd 51, (3S)-1-(Phenylcarbonyl)-N-[1-({5-[3-(trifluoromethyl)phenyl]-1-benzothiophen-2-yl}carbonyl)azetidin-3-yl]pyrrolidin-3-amine] |  | 
